{
  "source": "paper PMC3436077",
  "about": "(DARU Journal of Pharmaceutical Sciences, 2011)",
  "key": {"[1]": {"conditions": "mice; cited from earlier work"}, "[2]": {"assay": "Apical-to-basal transwell transport across MDCK II cell monolayer", "conditions": "dog, MDCK"}, "P-glycoprotein (PGP)": {"test_system": "P-glycoprotein (PGP)", "assay": "Apical-to-basal transwell transport across MDCK II cell monolayer", "conditions": "dog, MDCK, M6G permeability in the presence of cyclosporine, MDCK II cells, cyclosporine (10 µM), PGP inhibitor"}, "MDCK II cells": {"test_system": "MDCK II cells", "assay": "Apical-to-basal transwell transport across MDCK II cell monolayer"}},
  "data": [
    {"smiles": "CN1CC[C@]23c4c5ccc(O)c4O[C@H]2[C@@H](O[C@@H]2O[C@H](C(=O)O)[C@@H](O)[C@H](O)[C@H]2O)C=C[C@H]3[C@H]1C5", "note": "[M6G, Morphine-6-glucuronide]", "values": [
      {"measurement": "Change of M6G brain uptake in the presence of digoxin", "setting": "[1]", "result": "threefold reduction"},
      {"measurement": "Papp at 100 min", "setting": "[2]; M6G permeability in the presence of d-glucose, d-glucose 5µ M, MDCK II, P < 0.05", "result": "2.06 ± 0.02", "unit": "×10⁻⁶ cm/s"},
      {"measurement": "Papp at 100 min", "setting": "[2]; M6G permeability in the presence of digoxin, digoxin 5µ M, MDCK II, P < 0.05", "result": "2.64 ± 0.11", "unit": "×10⁻⁶ cm/s"},
      {"measurement": "Papp at 100 min", "setting": "[2]; M6G permeability in the presence of probenecid, probenecid 10µ M, MDCK II, P > 0.05", "result": "2.95 ± 0.06", "unit": "×10⁻⁶ cm/s"},
      {"measurement": "Papp at 100 min, 100 µg/ml", "setting": "[2]; Permeability ± SD in the presence of morphine, M6G 100 µg/ml + morphine 61,820 ng/ml, MDCK II", "result": "3.31 ± 0.14", "unit": "×10⁻⁶ cm/s"},
      {"measurement": "Papp at 100 min, 100 µg/ml", "setting": "[2]; Permeability ± SD, M6G 100 µg/ml alone, MDCK II", "result": "2.92 ± 0.02", "unit": "×10⁻⁶ cm/s"},
      {"measurement": "Papp at 100 min", "setting": "[2]; Permeability, MDCK II cells, A→B, 100 min, M6G 100 µg/ml, sucrose 8,000,000 DPM/ml, N=4", "result": "2.94 ± 0.03", "unit": "×10⁻⁶ cm/s"},
      {"measurement": "Papp at 100 min", "setting": "P-glycoprotein (PGP)", "result": "3.16 ± 0.01", "unit": "×10⁻⁶ cm/s"},
      {"measurement": "M6G apical to basal movement relative to morphine (times lower)", "setting": "MDCK II cells; morphine value from earlier paper", "result": 10, "unit": "times"},
      {"measurement": "Morphine in apical and basal chambers (de-glucuronidation of M6G)", "setting": "MDCK II cells; t= 100 min, sensitive morphine assay", "result": "not a significant or detectable morphine"}
    ]}
  ]
}
